Experimental data reported in ChEMBL document CHEMBL5724914, “Linking interpersonal differences in gut microbiota composition and drug biotransformation activity” (2024).

Tests used:
[1] = (§1) The drug is tested on Z-017 corresponding to mouse gut metagenome with ENA study accession number: PRJEB37062 and ENA sample accession number: ERS12561816 for biotransformation under anaerobic condition. The drug concentrations were measured over 9 timepoints collected between 0 and 24 hours of incubation by liquid-chromatography-coupled mass spectrometry (LC–MS); conditions: 2 µM
[2] = human gut metagenome, 24 h, 2 µM
[3] = as §1, with “Z-007” for “Z-017”, “rat” for “mouse”, “ERS12561807” for “ERS12561816”; conditions: 2 µM
[4] = as §1, with “WLS-350” for “Z-017”, “human” for “mouse”, “ERS12561789” for “ERS12561816”; conditions: 2 µM
[5] = human gut metagenome, 24 h, 2 µM; remark: listed apart in the source
[6] = human gut metagenome, 24 h, 2 µM; remark: listed apart in the source
[7] = human gut metagenome, 24 h, 2 µM; remark: listed apart in the source
[8] = as §1, with “WLS-027” for “Z-017”, “human” for “mouse”, “ERS12561744” for “ERS12561816”; conditions: 2 µM
[9] = human gut metagenome, 24 h, 2 µM; remark: listed apart in the source
[10] = as §1, with “WLS-052” for “Z-017”, “human” for “mouse”, “ERS12561747” for “ERS12561816”; conditions: 2 µM
[11] = as §1, with “Z-012” for “Z-017”, “to” for “to mouse gut”, “ERS12561812” for “ERS12561816”; conditions: 2 µM
[12] = as §1, with “Z-021” for “Z-017”, “to” for “to mouse gut”, “ERS12561820” for “ERS12561816”; conditions: 2 µM
[13] = human gut metagenome, 24 h, 2 µM; remark: listed apart in the source
[14] = human gut metagenome, 24 h, 2 µM; remark: listed apart in the source
[15] = human gut metagenome, 24 h, 2 µM; remark: listed apart in the source
[16] = human gut metagenome, 24 h, 2 µM; remark: listed apart in the source
[17] = as §1, with “Z-001” for “Z-017”, “ERS12561801” for “ERS12561816”; conditions: 2 µM
[18] = human gut metagenome, 24 h, 2 µM; remark: listed apart in the source
[19] = as §1, with “Z-002” for “Z-017”, “rabbit” for “mouse”, “ERS12561802” for “ERS12561816”; conditions: 2 µM
[20] = as §1, with “WLS-170” for “Z-017”, “human” for “mouse”, “ERS12561762” for “ERS12561816”; conditions: 2 µM

Measured: Bacterial Biotransformation
Note: call rule not given here.

CN(C)CC(c1ccc(O)cc1)C1(O)CCCCC1.O=C(O)CCC(=O)O (stereo not given) [DESVENLAFAXINE SUCCINATE]
Compound NOT metabolized: all assays above

CN1CCN(C(=O)O[C@H]2c3nccnc3C(=O)N2c2ccc(Cl)cn2)CC1 [ESZOPICLONE]
Compound NOT metabolized: all assays above

CC(C)OC(=O)C(C)(C)Oc1ccc(C(=O)c2ccc(Cl)cc2)cc1 [FENOFIBRATE]
Compound NOT metabolized: [2] | [4] | [5] | [9] | [10] | [12] | [17]
Compound metabolized: all other assays above

O=C1NCC2(CCN(CCc3ccccc3)CC2)O1 [FENSPIRIDE]
Compound metabolized: [17] | [19]
Compound NOT metabolized: all other assays above

OC(Cn1cncn1)(Cn1cncn1)c1ccc(F)cc1F [FLUCONAZOLE]
Compound metabolized: [4] | [5] | [6] | [8] | [12] | [13] | [14] | [15] | [19] | [20]
Compound NOT metabolized: all other assays above

CNCCC(Oc1ccc(C(F)(F)F)cc1)c1ccccc1 (stereo not given) [FLUOXETINE]
Compound NOT metabolized: all assays above

O=C(CCCN1CCC(O)(c2ccc(Cl)cc2)CC1)c1ccc(F)cc1 [HALOPERIDOL]
Compound metabolized: [8] | [13] | [14] | [15] | [19] | [20]
Compound NOT metabolized: all other assays above

CCCCC1=NC2(CCCC2)C(=O)N1Cc1ccc(-c2ccccc2-c2nnn[nH]2)cc1 [IRBESARTAN]
Compound NOT metabolized: [1] | [3] | [11] | [12] | [18]
Compound metabolized: all other assays above
